In patent US20260327224A1, “SUBSTITUTED PYRIDOTRIAZOLE COMPOUND, AND PREPARATION METHOD THEREFOR AND USE THEREOF” (ORIGIANT PHARMACEUTICAL CO., LTD., priority 2023, published 2026):

Tested on: HT-29 cells (colon cancer cells)
Assay: In vitro assay for protection of HT-29 cells from necroptosis (TNFα/Smac mimetic/Z-VAD-FMK, CCK-8)
Type: cell-based
Conditions: Homo sapiens, Protective Activity Against Necroptosis, TNFα/Smac mimetic/Z-VAD-FMK induced, 24 h
Source text: Z′=1−3(SDmin+SDmax)/(AVEmax−AVEmin) • wherein: • Min is the positive control Data, and Max is the negative control DMSO Data. • SD is the standard deviation, and AVE is the average. In Vitro Assay for Protection of HT-29 Cells from Necroptosis:
1) Experimental Materials
DMEM medium was purchased from Gibco; penicillin-streptomycin was purchased from Hyclone; TNFα was purchased from Peprotech; Smac mimetic and Z-VAD-FMK were purchased from Selleck; and CCK-8 was purchased from Medchem Express.
HT-29 cells (colon cancer cells) were cultured in DMEM+10% FBS+penicillin/streptomycin. For the experiment, HT-29 cells in the logarithmic phase were collected and seeded into 96-well plates at a specific density (typically 8×10^3 cells/well for adherent cells). The cells were cultured overnight in an incubator at 37° C. with 5% CO2. On the following day, the test compound was diluted with culture medium to the corresponding concentrations and added into the 96-well plate, with 3 replicate wells for each sample. A solvent control group and a blank control group containing only culture medium were set simultaneously. The spiked cells were induced with a combination of TNFα/Smac mimetic/Z-VAD-FMK for 24 h. Subsequently, 10 μL of CCK8 solution was added to each well, and the cells were incubated in an incubator for 1-3 h. Absorbance was measured at […] using a microplate reader, and the cell necrosis protection rate of the drug was calculated using the following formula:
Cell necrosis protection rate=[(X−C0)/(C−C0)]×100% • where C, C0, and X represent the average absorbance values of the solvent control group, the blank control group, and the drug treatment group, respectively. Finally, a cell viability curve was fitted using Graphpad Prism 5.0 software, and the EC50 value of the test compound for inhibiting necroptosis was calculated.

Compound: Cn1cc(C(=O)N[C@H]2CCCc3cc(F)ccc32)c2cc(-c3ccn4nc(NC(=O)[C@H]5CCCO5)nc4c3)ccc21 [Compound 137]
- EC50: 10 to 100 nM

Compound: Cn1cc(C(=O)NC2(c3ccc(F)cc3)COC2)c2cc(-c3ccn4nc(NC(=O)C5CC5)nc4c3)ccc21 [Compound 148]
- EC50: 10 to 100 nM

Compound: C[C@H](NC(=O)c1cn(C)c2ccc(-c3ccn4nc(NC(=O)CN5C[C@H]6C[C@@H]5CO6)nc4c3)cc12)c1ccc(F)cc1 [Compound 39]
- EC50: < 1 nM

Compound: Cn1cc(C(=O)N[C@@H]2C[C@H]2c2ccc(F)c(F)c2)c2cc(-c3ccn4nc(NC(=O)[C@H]5CCCO5)nc4c3)ccc21 [Compound 184]
- EC50: 100 to 1000 nM

Compound: C[C@H](NC(=O)c1cn(C)c2ccc(-c3ccn4nc(NC(=O)CN5CCN(C(=O)C6CC6)CC5)nc4c3)cc12)c1ccc(F)cc1 [Compound 50]
- EC50: < 1 nM

Compound: Cn1nc(C(=O)N[C@@H](CF)c2ccc(F)cc2)c2cc(-c3ccn4nc(NC(=O)N5CCOCC5)nc4c3)ccc21 [Compound 189]
- EC50: < 1 nM

Compound: CC(C(=O)Nc1cn(C)c2ccc(-c3ccn4nc(NC(=O)C5CC5)nc4c3)cc12)c1ccc(F)cc1 (stereo not shown) [Compound 177]
- EC50: 10 to 100 nM

Compound: COC1CCN(CC(=O)Nc2nc3cc(-c4ccc5c(c4)c(C(=O)N[C@@H](C)c4ccc(F)cc4)cn5C)ccn3n2)CC1 [Compound 24]
- EC50: < 1 nM

Compound: CC(C(=O)Nc1nn(C)c2ccc(-c3ccn4nc(NC(=O)C5CC5)nc4c3)cc12)c1ccc(F)cc1 (stereo not shown) [Compound 182]
- EC50: 10 to 100 nM

Compound: C[C@H](NC(=O)c1cn(C)c2ccc(-c3ccn4nc(NC(=O)CN5CC[C@@H](CO)C5)nc4c3)cc12)c1ccc(F)cc1 [Compound 62]
- EC50: < 1 nM

Compound: Cn1cc(C(=O)N2CCC[C@H]2c2ccc(F)cc2)c2cc(-c3ccn4nc(NC(=O)C5CCCO5)nc4c3)ccc21 (stereo partly shown) [Compound 154]
- EC50: < 1 nM

Compound: Cn1cc(C2=NC(c3ccc(F)cc3)CO2)c2cc(-c3ccn4nc(NC(=O)C5CC5)nc4c3)ccc21 (stereo not shown) [Compound 212]
- EC50: 10 to 100 nM

Compound: C[C@H](NC(=O)c1cn(C)c2ccc(-c3ccn4nc(NC(=O)CN5CC[C@H](O)C5)nc4c3)cc12)c1ccc(F)cc1 [Compound 41]
- EC50: < 1 nM

Compound: Cn1cc(C(=O)N[C@@H](CF)c2ccc(F)cc2)c2cc(-c3ccn4nc(NC(=O)CCl)nc4c3)ccc21 [Compound 94]
- EC50: < 1 nM

Compound: C[C@H](NC(=O)c1cn(C)c2ccc(-c3ccn4nc(NC(=O)CN5CC(F)(F)C5)nc4c3)cc12)c1ccc(Cl)cc1 [Compound 80]
- EC50: < 1 nM

Compound: Cn1cc(C(=O)Nc2nc3cc(-c4ccc5c(c4)c(C(=O)N[C@H]4CCCc6ccc(F)cc64)cn5C)ccn3n2)cn1 [Compound 143]
- EC50: 1 to 10 nM

Compound: C[C@H](NC(=O)c1cn(C)c2ccc(-c3ccn4nc(NC(=O)C5(C(=O)O)CC5)nc4c3)cc12)c1ccc(F)cc1 [Compound 31]
- EC50: 10 to 100 nM

Compound: C[C@H](NC(=O)c1cn(C)c2ccc(-c3ccn4nc(NC(=O)CN5CCC(F)(F)CC5)nc4c3)cc12)c1ccc(Cl)cc1 [Compound 86]
- EC50: < 1 nM

Compound: Cn1cc(C(=O)N[C@H](c2ccc(F)cc2)C(F)F)c2cc(-c3ccn4nc(NC(=O)CN5CCCCC5)nc4c3)ccc21 [Compound 163]
- EC50: < 1 nM

Compound: Cn1cc(C(=O)Nc2nc3cc(-c4ccc5c(c4)c(C(=O)N4CCC[C@H]4c4ccc(F)cc4)cn5C)ccn3n2)cn1 [Compound 207]
- EC50: < 1 nM

Compound: CC1CN(CC(=O)Nc2nc3cc(-c4ccc5c(c4)c(C(=O)N[C@@H](C)c4ccc(Cl)cc4)cn5C)ccn3n2)CCO1 (stereo partly shown) [Compound 84]
- EC50: < 1 nM

Compound: Cn1cc(C(=O)N2N=CCC2c2ccc(F)cc2)c2cc(-c3ccn4nc(NC(=O)C5CC5)nc4c3)ccc21 (stereo not shown) [Compound 170]
- EC50: < 1 nM

Compound: Cn1cc(C(=O)Nc2nc3cc(-c4ccc5c(c4)c(C(=O)N[C@@H](CF)c4ccc(F)cc4)cn5C)ccn3n2)cn1 [Compound 111]
- EC50: 1 to 10 nM

Compound: CN1CC[C@@H](C(=O)Nc2nc3cc(-c4ccc5c(c4)c(C(=O)N[C@@H](CF)c4ccc(F)cc4)cn5C)ccn3n2)C1 [Compound 100]
- EC50: < 1 nM

Compound: C[C@H](NC(=O)c1cn(C)c2ccc(-c3ccn4nc(NC(=O)CN5CCSCC5)nc4c3)cc12)c1ccc(F)cc1 [Compound 43]
- EC50: < 1 nM

Compound: C[C@H](NC(=O)c1cn(C)c2ccc(-c3ccn4nc(NC(=O)CN5CC6CCC(C5)O6)nc4c3)cc12)c1ccc(F)cc1 [Compound 71]
- EC50: < 1 nM

Compound: CC(C(=O)Nc1nc2cc(-c3ccc4c(c3)c(C(=O)N[C@@H](C)c3ccc(F)cc3)cn4C)ccn2n1)N1CC[C@H](O)C1 (stereo partly shown) [Compound 1]
- EC50: 10 to 100 nM

Compound: CCOC(=O)C(=O)Nc1nc2cc(-c3ccc4c(c3)c(C(=O)N[C@@H](C)c3ccc(F)cc3)cn4C)ccn2n1 [Compound 10]
- EC50: 1 to 10 nM

Compound: C[C@H](NC(=O)c1cn(C)c2ccc(-c3ccn4nc(NC(=O)Cn5ccnn5)nc4c3)cc12)c1ccc(F)cc1 [Compound 52]
- EC50: < 1 nM

Compound: Cn1cc(C(=O)N2CC(F)(F)CC2c2ccc(F)cc2)c2cc(-c3ccn4nc(NC(=O)N5CCOCC5)nc4c3)ccc21 (stereo not shown) [Compound 160]
- EC50: < 1 nM

Compound: Cn1cc(C(=O)N[C@@H](CF)c2ccc(F)cc2)c2cc(-c3ccn4nc(NCC5CC5)nc4c3)ccc21 [Compound 108]
- EC50: < 1 nM

Compound: CO[C@@H](C)C(=O)Nc1nc2cc(-c3ccc4c(c3)c(C(=O)N[C@@H](CF)c3ccc(F)cc3)cn4C)ccn2n1 [Compound 98]
- EC50: < 1 nM

Compound: CC(C(=O)Nc1nn(C)c2ccc(-c3ccn4nc(NC(=O)CN(C)C)nc4c3)cc12)c1ccc(F)cc1 (stereo not shown) [Compound 180]
- EC50: 1000 to 10000 nM

Compound: Cn1cc(C(=O)Nc2nc3cc(-c4ccc5c(c4)c(C(=O)N4N=CCC4c4ccc(F)cc4)cn5C)ccn3n2)cn1 (stereo not shown) [Compound 171]
- EC50: 1 to 10 nM

Compound: Cn1cc(C(=O)N[C@@H](CF)c2ccc(F)cc2)c2cc(-c3ccn4nc(NC(=O)C5CC5F)nc4c3)ccc21 (stereo partly shown) [Compound 113]
- EC50: 1 to 10 nM

Compound: C[C@H](NC(=O)c1cn(C)c2ccc(-c3ccn4nc(NC(=O)Cn5cccn5)nc4c3)cc12)c1ccc(F)cc1 [Compound 58]
- EC50: < 1 nM

Compound: Cn1cc(C(=O)N[C@@H](CF)c2ccc(F)cc2)c2cc(-c3ccn4nc(NC(=O)C5CCOC5)nc4c3)ccc21 (stereo partly shown) [Compound 109]
- EC50: 1 to 10 nM

Compound: C[C@H](NC(=O)c1cn(C)c2ccc(-c3ccn4nc(NC(=O)CN5C6CCC5COC6)nc4c3)cc12)c1ccc(F)cc1 [Compound 73]
- EC50: < 1 nM

Compound: Cn1nc(C(=O)N[C@@H](CF)c2ccc(F)cc2)c2cc(-c3ccn4nc(NC(=O)C5CCOC5)nc4c3)ccc21 (stereo partly shown) [Compound 188]
- EC50: < 1 nM

Compound: C[C@H](NC(=O)c1cn(C)c2ccc(-c3ccn4nc(NC(=O)C(N)=O)nc4c3)cc12)c1ccc(F)cc1 [Compound 11]
- EC50: 1 to 10 nM

Compound: C[C@H](NC(=O)c1cn(C)c2ccc(-c3ccn4nc(NC(=O)Cn5ccnc5)nc4c3)cc12)c1ccc(F)cc1 [Compound 48]
- EC50: 10 to 100 nM

Compound: Cn1cc(C(=O)Nc2nc3cc(-c4ccc5c(c4)c(C(=O)N[C@H]4CCc6ccc(F)cc64)cn5C)ccn3n2)cn1 [Compound 122]
- EC50: 100 to 1000 nM

Compound: CC(=O)Nc1nc2cc(-c3ccc4c(c3)c(C(=O)N[C@@H]3C[C@H]3c3ccc(F)c(F)c3)cn4C)ccn2n1 [Compound 125]
- EC50: 1000 to 10000 nM

Compound: C[C@@H](c1ccc(F)cc1)N(C)C(=O)c1cn(C)c2ccc(-c3ccn4nc(NC(=O)[C@@H]5CCCO5)nc4c3)cc12 [Compound 176]
- EC50: < 1 nM

Compound: C[C@H](NC(=O)c1cn(C)c2ccc(-c3ccn4nc(NC(=O)CN5CCCO5)nc4c3)cc12)c1ccc(F)cc1 [Compound 22]
- EC50: 1 to 10 nM

Compound: C[C@H](NC(=O)c1cn(C)c2ccc(-c3ccn4nc(NC(=O)CN5CCCOCC5)nc4c3)cc12)c1ccc(F)cc1 [Compound 30]
- EC50: < 1 nM
